Like-named read-outs stand apart in the source and are kept apart here.
What was measured:
[1] = system: HCT116 human colon carcinoma cells; experiment: XTT cytotoxicity assay in HCT116 human colon carcinoma cells; assay type: cell-based; conditions: read-out: Cytotoxicity Assay IC50 against HCT 116 Human colon tumor cell line
Procedure: Cytotoxicity was assessed in HCT116 human colon carcinoma cells by XTT (2,3-bis(2-methoxy-4-nitro-5-sulfophenyl)-5-[(phenylamino)carbonyl]-2H-tetrazolium hydroxide assay (1). Cells were plated at 4000 cells/well in 96 well microtiter plates and 24 hrs later drugs were added and serial diluted. The cells were incubated at 37° C. for 72 hrs at which time the tetrazolium dye, XTT, containing phenazine methosulfate was added. A dehydrogenase enzyme in live cells reduces the XTT to a form that absorbs light at 450 nm which can be quantitated spectrophotometrically. The greater the absorbance the greater the number of live cells. The results are expressed as an IC50 which is the drug concentration required to inhibit cell proliferation (i.e. absorbance at 450 nm) to 50% of that of untreated control cells.
The IC50 values for compounds evaluated in this assay are contained in Table I.

[2] = cited from earlier work
M109 lung carcinoma = experiment: Mice M109 model, advanced distal site antitumor IV testing; assay type: in vivo, Balb/c×DBA 2 F1 (CDF1) hybrid mice; conditions: for Maximum Effect T-C days (delay of median time to grow tumor to 1 gm): intravenous, once daily on days 4-8 post-tumor implant, sc tumor
Procedure: Mice M109 Model (In-Vivo Activity)
Balb/c×DBA 2 F1 (CDF1) hybrid mice were implanted subcutaneously (sc) with 0.1 mL of a 2% (w/v) brei of M109 lung carcinoma (as described by William Rose in Evaluation of Madison 109 Lung Carcinoma as a Model for Screening Antitumor Drugs, Cancer Treatment Reports, 65, No. 3-4 (1981)).
The test compounds and reference drug, paclitaxel, were administered intravenously to groups of mice; each group received a compound at a different dose level, and three or four different dose levels were evaluated per compound. Mice were treated with compounds intravenously, once daily, on days 4, 5, 6, 7, and 8 post-tumor implant. Mice were followed daily for survival until their death or approximately 60-90 days post-tumor implant whichever occurred first. One group of mice per experiment remained untreated and served as the primary control group; a secondary control group was typically included and received 1/10th the tumor inocula of all the other groups of mice (i.e., 0.1 ml of a 0.2% (w/v) brei of M109 lung carcinoma). Tumors were also measured once or, more often, twice weekly to estimate the tumor weight according to the published procedure (ibid).
Median survival times of compound-treated (T) mice were compared to the median survival time of the control (C) mice. The ratio of the two values for each compound-treated group of mice was multiplied by 100 and expressed as a percentage (i.e. % T/C) in the following Table II for representative compounds. Additionally, the difference between the median time for treated groups and that for the control group to grow tumor to 1 gm, expressed as T-C values in days, is also shown in the following table. The greater the T-C value, the greater the delay in primary tumor growth. […] When the difference in the time to grow 1 gm tumors in both primary and secondary control groups is greater than 4 days, that difference becomes the criterion for activity.
Advanced Distal Site Antitumor IV Testing of Paclitaxel Derivatives

[3] = HCT-116, XTT, 72 hrs incubation at 37° C.

CC(=O)O[C@H]1C(=O)[C@]2(C)[C@@H](OCS(C)(=O)=O)C[C@H]3OC[C@@]3(OC(C)=O)[C@H]2[C@H](OC(=O)c2ccccc2)[C@]2(O)C[C@H](OC(=O)[C@H](O)[C@@H](NC(=O)c3ccccc3)c3ccccc3)C(C)=C1C2(C)C [4 (Example 2)]
IC50 [1, 3]: 2.8 nM

CC(=O)O[C@H]1C(=O)[C@@]2(C)[C@H]([C@H](OC(=O)c3ccccc3)[C@]3(O)C[C@H](OC(=O)[C@H](O)[C@@H](NC(=O)c4ccccc4)c4ccccc4)C(C)=C1C3(C)C)[C@]1(OC(C)=O)CO[C@@H]1C[C@@H]2O [paclitaxel]
antitumor activity in in vivo animal models, in words [2]: excellent antitumor activity | IC50 [1, 3]: 4.9 to 5.9 nM

CC(=O)O[C@H]1C(=O)[C@]2(C)[C@@H](OC[S+](C)[O-])C[C@H]3OC[C@@]3(OC(C)=O)[C@H]2[C@H](OC(=O)c2ccccc2)[C@]2(O)C[C@H](OC(=O)[C@H](O)[C@@H](NC(=O)c3ccccc3)c3ccccc3)C(C)=C1C2(C)C (some centres unmarked)
Maximum Effect % T/C (median survival time, treated vs control) (M109 lung carcinoma; 15 mg/kg): 141% | Maximum Effect % T/C (median survival time, treated vs control) (M109 lung carcinoma; 25 mg/kg): 129% | Maximum Effect T-C days (delay of median time to grow tumor to 1 gm) (M109 lung carcinoma; Opt. dose 15 mg/kg/inj): 9.0 days | Maximum Effect T-C days (delay of median time to grow tumor to 1 gm) (M109 lung carcinoma; Opt. dose 25 mg/kg/inj): 10.0 days

CC(=O)O[C@H]1C(=O)[C@]2(C)[C@@H](OC[S+](C)[O-])C[C@H]3OC[C@@]3(OC(C)=O)[C@H]2[C@H](OC(=O)c2ccccc2)[C@]2(O)C[C@H](OC(=O)[C@H](O)[C@@H](NC(=O)c3ccccc3)c3ccccc3)C(C)=C1C2(C)C (some centres unmarked) [2 & 3 (Example 1)]
IC50 ([1]; HCT-116, 72 h): 13 nM
